# Where two headings read alike, the source gives them in different places.
# Columns and labels:
# [1] = molecular target: T1, human SGLT1 (Homo sapiens, UniProt P13866); assay: SGLT1 in vitro assay: Na-dependent 14C-AMG uptake in CHO-K1 cells stably expressing human SGLT1; assay type: cell-based; conditions: for inhibition at 0.3 µM: read-out: SGLT1 % Inh @ 0.3 μM
# T1 construct: expressed in transfected cells
# T1 sequence (P13866 1-664): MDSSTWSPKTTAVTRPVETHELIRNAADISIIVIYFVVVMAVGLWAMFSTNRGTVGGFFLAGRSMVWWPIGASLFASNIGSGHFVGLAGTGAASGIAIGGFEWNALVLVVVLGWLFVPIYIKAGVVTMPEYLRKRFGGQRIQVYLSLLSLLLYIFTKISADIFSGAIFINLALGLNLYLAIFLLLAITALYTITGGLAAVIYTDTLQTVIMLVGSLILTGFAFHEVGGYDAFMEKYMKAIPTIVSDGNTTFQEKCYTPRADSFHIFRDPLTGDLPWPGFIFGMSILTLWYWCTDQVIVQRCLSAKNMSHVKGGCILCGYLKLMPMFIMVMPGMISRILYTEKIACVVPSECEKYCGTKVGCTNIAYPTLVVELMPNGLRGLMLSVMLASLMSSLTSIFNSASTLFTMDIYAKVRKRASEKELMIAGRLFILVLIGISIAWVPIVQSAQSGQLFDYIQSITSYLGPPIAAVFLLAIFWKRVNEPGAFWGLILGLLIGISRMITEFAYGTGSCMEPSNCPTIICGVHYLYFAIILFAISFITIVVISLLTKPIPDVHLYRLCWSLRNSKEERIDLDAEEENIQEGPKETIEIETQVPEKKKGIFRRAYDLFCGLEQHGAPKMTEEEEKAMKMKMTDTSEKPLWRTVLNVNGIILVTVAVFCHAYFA
# In short: (§1)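 CHO-K1 cells stably expressing human SGLT1 or SGLT2, induced with 10 mM Na-butyrate for 24 h. Compounds (0.001–10 μM) in Na+-containing HEPES/Tris buffer pH 7.4 were applied for 10 min, then 14C-AMG ([…]) for 2 h at 37°C; Na-dependent uptake read by scintillation; %-inhibition or IC50.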
# [2] = molecular target: T2, human SGLT2 (Homo sapiens, UniProt P31639); assay: SGLT2 in vitro assay: Na-dependent 14C-AMG uptake in CHO-K1 cells stably expressing human SGLT2; assay type: cell-based; conditions: for inhibition at 0.3 µM: read-out: SGLT2 % Inh @ 0.3 μM
# T2 construct: expressed in transfected cells
# T2 sequence (P31639 1-672): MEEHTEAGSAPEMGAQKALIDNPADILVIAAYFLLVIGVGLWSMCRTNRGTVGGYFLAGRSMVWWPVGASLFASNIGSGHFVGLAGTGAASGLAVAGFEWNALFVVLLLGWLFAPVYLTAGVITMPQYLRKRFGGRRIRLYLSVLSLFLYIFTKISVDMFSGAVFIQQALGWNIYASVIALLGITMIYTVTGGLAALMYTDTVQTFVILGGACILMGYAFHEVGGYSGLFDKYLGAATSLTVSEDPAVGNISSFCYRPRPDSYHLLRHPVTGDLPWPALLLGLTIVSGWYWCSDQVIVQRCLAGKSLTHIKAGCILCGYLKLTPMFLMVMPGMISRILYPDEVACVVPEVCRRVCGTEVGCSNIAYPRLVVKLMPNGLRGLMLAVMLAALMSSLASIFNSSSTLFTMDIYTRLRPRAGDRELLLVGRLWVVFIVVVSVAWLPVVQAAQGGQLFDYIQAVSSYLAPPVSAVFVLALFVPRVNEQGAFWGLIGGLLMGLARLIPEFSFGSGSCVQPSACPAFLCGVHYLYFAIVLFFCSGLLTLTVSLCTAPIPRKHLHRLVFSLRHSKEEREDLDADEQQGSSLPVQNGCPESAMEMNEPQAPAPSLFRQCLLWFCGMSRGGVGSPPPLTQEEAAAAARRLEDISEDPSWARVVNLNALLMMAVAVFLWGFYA
# In short: as §1
# [3] = tested on: SD rats; assay: Oral Glucose Tolerance Test (OGTT) in SD rats: blood glucose excursion AUC and urine glucose excretion; assay type: in vivo, rat; conditions: mean ± SE; for Urine Glucose Excretion (g/0-4 hr): n = 8
# Method: Biological Example 2: In Vivo Assay
# Oral Glucose Tolerance Test (OGTT) in SD Rats
# Overnight fasted SD rats were allocated into vehicle or test compound treatment groups based on their body weights (n=8 in each group). The animals were orally dosed with vehicle or test compound at a volume of 10 ml/kg at 30-minute prior to OGTT. The animals then received an OGTT challenge with 2 g/kg (50% glucose solution at the volume of 4 ml/kg, orally). The animals were immediately transferred into metabolic cages after they were dosed with the glucose. Blood glucose levels were measured at 0 (pre-OGTT), 30, 60, and 120 minutes after OGTT using one-touch Glucometer. Blood glucose excursion AUC (area under the curve of blood glucose) was determined from the blood glucose levels measured at the timepoints.
# Table 9 below, presents the measured efficacy of the test compound(s), expressed as the percentage (%) of blood glucose AUC vs that in vehicle group. The data is interpreted such that, the smaller the percentage of blood glucose AUC of compound vs vehicle, the greater the efficacy of the test compound. Urine volume and urine glucose concentrations (tested by using Olympus system with Genzyme diagnostics assay reagent) were measured to determine the urine glucose excretion (UGE) in 4-hr period after OGTT (0-4 hours).
# [4] = @ 0.3 μM, CHO-K1 cells stably expressing human SGLT1, 14C-AMG uptake
# [5] = CHO-K1 cells stably expressing human SGLT1, 14C-AMG uptake, compounds of formula (I) where R0 is fluoro
# [6] = @ 0.3 μM, CHO-K1 cells stably expressing human SGLT2, 14C-AMG uptake
# [7] = CHO-K1 cells stably expressing human SGLT2, 14C-AMG uptake, compounds of formula (I) where R0 is fluoro
smiles,measurement,setting,value
"C[C@]1(F)[C@H](O)[C@@H](O)[C@H](c2cc(Cc3ccc4c(c3)OCCO4)c(Cl)cc2O)O[C@@H]1CO [Compound 3, (2S,3R,4R,5S,6R)-2-[4-chloro-5-(2,3-dihydro-1,4-benzodioxin-6-ylmethyl)-2-hydroxy-phenyl]-5-fluoro-6-(hydroxymethyl)-5-methyl-tetrahydropyran-3,4-diol]",inhibition at 0.3 µM,"[1]; 0.3 μM, CHO-K1 cells expressing human SGLT1",45.3%
same,IC50,"[1]; CHO-K1 cells expressing human SGLT1, 14C-AMG uptake",269 nM
same,inhibition at 0.3 µM,"[2]; 0.3 μM, CHO-K1 cells expressing human SGLT2",89.4%
same,IC50,"[2]; CHO-K1 cells expressing human SGLT2, 14C-AMG uptake",2.1 nM
same,response vs control in vivo at 1 mg/kg,"[3]; Rattus norvegicus, 2 h, oral dose 1 mg/kg, n = 8, read-out: 120-min Blood Glucose AUC vs Vehicle (%)",91.3 ± 2%
same,response vs control in vivo at 10 mg/kg,"[3]; Rattus norvegicus, 2 h, oral dose 10 mg/kg, n = 8, read-out: 120-min Blood Glucose AUC vs Vehicle (%)",69.3 ± 1.9%
same,Urine Glucose Excretion (g/0-4 hr),[3]; oral dose 1 mg/kg,0.001 g/0-4 hr
same,Urine Glucose Excretion (g/0-4 hr),[3]; oral dose 10 mg/kg,0.001 g/0-4 hr
CCOc1ccc(Cc2cc([C@@H]3O[C@H](CO)C(F)(F)[C@H](O)[C@H]3O)c(O)cc2Cl)cc1 [Compound 162],inhibition at 0.3 µM,[1]; [4],56.5%
same,IC50,[1]; [5],127 nM
same,inhibition at 0.3 µM,[2]; [6],73%
same,IC50,[2]; [7],1.5 nM
"OC[C@H]1O[C@@H](c2cc(Cc3ccc(Cl)cc3)c(Cl)cc2O)[C@H](O)[C@@H](O)C1(F)F [Compound 163, (2S,3R,4R,6R)-2-(4-chloro-5-(4-chlorobenzyl)-2-hydroxyphenyl)-5,5-difluoro-6-(hydroxymethyl)-tetrahydro-2H-pyran-3,4-diol]",inhibition at 0.3 µM,[1]; [4],73.1%
same,IC50,[1]; [5],25 nM
same,inhibition at 0.3 µM,[2]; [6],64.4%
same,IC50,[2]; [7],1.2 nM
COc1cc(Cl)c(Cc2ccc(C)s2)cc1[C@@H]1O[C@H](CO)C(F)(F)[C@H](O)[C@H]1O [Compound 165],inhibition at 0.3 µM,[1]; [4],54.7%
same,IC50,[1]; [5],40 nM
same,inhibition at 0.3 µM,[2]; [6],73.2%
same,IC50,[2]; [7],0.7 nM
CCc1ccc(Cc2cc([C@@H]3O[C@H](CO)C(F)(F)[C@H](O)[C@H]3O)c(OC)cc2C#N)cc1 [Compound 166],SGLT1 % Inh @ 0.3 μM,[1]; [4],8.5%
same,SGLT2 % Inh @ 0.3 μM,[2]; [6],74.9%
OC[C@H]1O[C@@H](c2cc(Cc3ccc(Cl)s3)c(Cl)cc2O)[C@H](O)[C@@H](O)C1(F)F [Compound 167],inhibition at 0.3 µM,[1]; [4],75.7%
same,IC50,[1]; [5],20 nM
same,inhibition at 0.3 µM,[2]; [6],83.4%
same,IC50,[2]; [7],0.8 nM
COc1cc(Cl)c(Cc2ccc(Cl)cc2)cc1[C@@H]1O[C@H](CO)C(F)(F)[C@H](O)[C@H]1O [Compound 168],inhibition at 0.3 µM,[1]; [4],43.2%
same,IC50,[1]; [5],175 nM
same,inhibition at 0.3 µM,[2]; [6],77.6%
same,IC50,[2]; [7],0.9 nM
COc1cc(C#N)c(Cc2ccc(C3CC3)cc2)cc1[C@@H]1O[C@H](CO)C(F)(F)[C@H](O)[C@H]1O [Compound 169],SGLT1 % Inh @ 0.3 μM,[1]; [4],12.1%
same,SGLT2 % Inh @ 0.3 μM,[2]; [6],78.9%
"Cc1ccc(Cc2cc([C@@H]3O[C@H](CO)C(F)(F)[C@H](O)[C@H]3O)c(O)cc2Cl)cc1 [Compound 171, (2S,3R,4R,6R)-2-(4-chloro-2-hydroxy-5-(4-methylbenzyl)phenyl)-5,5-difluoro-6-(hydroxymethyl)-tetrahydro-2H-pyran-3,4-diol]",inhibition at 0.3 µM,[1]; [4],86.4%
same,IC50,[1]; [5],12 nM
same,inhibition at 0.3 µM,[2]; [6],82.4%
same,IC50,[2]; [7],0.5 nM
COc1cc(Cl)c(Cc2ccc(Cl)s2)cc1[C@@H]1O[C@H](CO)C(F)(F)[C@H](O)[C@H]1O [Compound 172],SGLT1 % Inh @ 0.3 μM,[1]; [4],40.4%
same,SGLT2 % Inh @ 0.3 μM,[2]; [6],79.9%
N#Cc1cc(O)c([C@@H]2O[C@H](CO)C(F)(F)[C@H](O)[C@H]2O)cc1Cc1ccc(C2CC2)cc1 [Compound 173],SGLT1 % Inh @ 0.3 μM,[1]; [4],17.3%
same,SGLT2 % Inh @ 0.3 μM,[2]; [6],83.3%
OC[C@H]1O[C@@H](c2cc3c(c(Cc4ccc(C5CC5)cc4)c2)OCC3)[C@H](O)[C@@H](O)C1(F)F [Compound 174],SGLT1 % Inh @ 0.3 μM,[1]; [4],38.0%
same,SGLT2 % Inh @ 0.3 μM,[2]; [6],82.9%
CCc1ccc(Cc2cc([C@@H]3O[C@H](CO)C(F)(F)[C@H](O)[C@H]3O)c(O)cc2C#N)cc1 [Compound 175],SGLT1 % Inh @ 0.3 μM,[1]; [4],24.3%
same,SGLT2 % Inh @ 0.3 μM,[2]; [6],79.9%
COc1cc(Cl)c(Cc2ccc(C)cc2)cc1[C@@H]1O[C@H](CO)C(F)(F)[C@H](O)[C@H]1O [Compound 176],inhibition at 0.3 µM,[1]; [4],52%
same,IC50,[1]; [5],105 nM
same,inhibition at 0.3 µM,[2]; [6],90.6%
same,IC50,[2]; [7],1.7 nM
Cc1ccc(Cc2cc([C@@H]3O[C@H](CO)C(F)(F)[C@H](O)[C@H]3O)c(O)cc2C)cc1F [Compound 177],inhibition at 0.3 µM,[1]; [4],79.6%
same,IC50,[1]; [5],13 nM
same,inhibition at 0.3 µM,[2]; [6],87.8%
same,IC50,[2]; [7],3.1 nM
CN(C)c1ccc(Cc2cc([C@@H]3O[C@H](CO)C(F)(F)[C@H](O)[C@H]3O)cc3c2OCC3)cc1 [Compound 179],SGLT1 % Inh @ 0.3 μM,[1]; [4],24.9%
same,SGLT2 % Inh @ 0.3 μM,[2]; [6],62.1%
CCc1csc(Cc2cc([C@@H]3O[C@H](CO)C(F)(F)[C@H](O)[C@H]3O)c(O)cc2C)c1 [Compound 182],inhibition at 0.3 µM,[1]; [4],60.2%
same,IC50,[1]; [5],40 nM
same,inhibition at 0.3 µM,[2]; [6],83.6%
same,IC50,[2]; [7],1.3 nM
COc1c([C@@H]2O[C@H](CO)C(F)(F)[C@H](O)[C@H]2O)cc(Cc2ccc(C3CC3)cc2)c2c1CCO2 [Compound 183],SGLT1 % Inh @ 0.3 μM,[1]; [4],39.3%
same,SGLT2 % Inh @ 0.3 μM,[2]; [6],87.4%
COc1c([C@@H]2O[C@H](CO)C(F)(F)[C@H](O)[C@H]2O)cc(Cc2ccc(OCF)cc2)c2c1CCO2 [Compound 184],SGLT1 % Inh @ 0.3 μM,[1]; [4],24.7%
same,SGLT2 % Inh @ 0.3 μM,[2]; [6],73.2%
COc1c([C@@H]2O[C@H](CO)C(F)(F)[C@H](O)[C@H]2O)cc(Cc2ccc(N(C)C)cc2)c2c1CCO2 [Compound 185],SGLT1 % Inh @ 0.3 μM,[1]; [4],25.4%
same,SGLT2 % Inh @ 0.3 μM,[2]; [6],65.3%
OC[C@H]1O[C@@H](c2cc(Cc3ccc4c(c3)OCCO4)c3c(c2O)OCC3)[C@H](O)[C@@H](O)C1(F)F [Compound 187],inhibition at 0.3 µM,[1]; [4],52.7%
same,IC50,[1]; [5],160 nM
same,inhibition at 0.3 µM,[2]; [6],74.6%
same,IC50,[2]; [7],35.9 nM
OC[C@H]1O[C@@H](c2cc(Cc3ccc4c(c3)OCCO4)c(Cl)c3c2CCO3)[C@H](O)[C@@H](O)C1(F)F [Compound 188],SGLT1 % Inh @ 0.3 μM,[1]; [4],21.6%
same,SGLT2 % Inh @ 0.3 μM,[2]; [6],60.1%
[2H]C([2H])(c1ccc2c(c1)OCCO2)c1cc([C@@H]2O[C@H](CO)C(F)(F)[C@H](O)[C@H]2O)ccc1CC [Compound 192],inhibition at 0.3 µM,[1]; [4],49.9%
same,IC50,[1]; [5],779 nM
same,inhibition at 0.3 µM,[2]; [6],85.7%
same,IC50,[2]; [7],108 nM

# Source: patent US20210238170A1, “5,5-Difluoro- and 5-Fluoro-5-Methyl-C-Glycoside Derivatives Useful As Dual SGLT1 / SGLT2 Modulators” (Janssen Pharmaceutica NV, priority 2018, published 2021)
